Data on two compounds can be found in US12203089B2, “Plants having increased tolerance to herbicides” (BASF SE, priority 2015, dated 2025).

Structures are written as SMILES.

Format in all cases: in vivo
Assay [1] relates to Arabidopsis thaliana expressing AtCesA3_S983F_S1040L (SEQ ID 3). The assay can be described thus: 48-well plate growth inhibition, T2 seeds, tolerance factor. The following applies: based on IC50 values of growth inhibition, seven to ten days after seeding. How it is done:
(§1) Transgenic Arabidopsis thaliana plants (T2) are assayed for improved tolerance to azine herbicides like e. g. 6-cyclopentyl-N4-(2,3,4,5,6-pentafluorophenyl)-1,3,5-triazine-2,4-diamine in 48-well plates. Therefore, T2 seeds are surface sterilized by stirring for 5 min in ethanol+water (70+30 by volume), rinsing one time with ethanol+water (70+30 by volume) and two times with sterile, deionized water. The seeds are resuspended in 0.1% agar dissolved in water (w/v) Four to five seeds per well are plated on solid nutrient medium consisting of half-strength murashige skoog nutrient solution, pH 5.8 (Murashige and Skoog (1962) Physiologia Plantarum 15: 473-497). Compounds are dissolved in dimethylsulfoxid (DMSO) and added to the medium prior solidification (final DMSO concentration 0.1%). Multi well plates are incubated in a growth chamber at 22° C., 75% relative humidity and 110 μmol Phot*m^−2*s^−1 with 14:10 h light:dark photoperiod. Growth inhibition is evaluated seven to ten days after seeding in comparison to wild type plants. Tolerance factors are calculated based on IC50 values of growth inhibition of transformed versus non-transformed Arabidopsis plants.

Assay [2] has as its system Arabidopsis thaliana expressing AtCesA3_wt (SEQ ID 3). The assay is described as above. The following applies: based on IC50 values of growth inhibition, seven to ten days after seeding. As for the experimental part:
as §1

Assay [3] deals with Arabidopsis thaliana expressing AtCesA1_wt (SEQ ID 1). The description is as above. The following applies: based on IC50 values of growth inhibition, seven to ten days after seeding. As for the experimental part:
as §1

Assay [4] relates to Arabidopsis thaliana expressing AtCesA1_G1009D_G1013R (SEQ ID 1). Described as above. The following applies: based on IC50 values of growth inhibition, seven to ten days after seeding. As for the experimental part: as §1
Assay [5] concerns Arabidopsis thaliana expressing AtCesA3_S983F_S1037F (SEQ ID 3). Described as above. The following applies: based on IC50 values of growth inhibition, seven to ten days after seeding. As for the experimental part:
as §1

In a further assay the test system is Brassica napus wildtype. The experiment in a line: 6-well plate injury test, seeds on vermiculite. The following applies: 7 days after treatment. How it is done: (§2) Transgenic Brassica napus plants are assayed for improved tolerance to azine herbicides like e. g. 6-cyclopentyl-N4-(2,3,4,5,6-pentafluorophenyl)-1,3,5-triazine-2,4-diamine in 6-well plates. Therefore, 5-6 T1 seeds are sown on vermiculite and watered with half-strength murashige skoog nutrient solution, pH 5.8 (Murashige and Skoog (1962) Physiologia Plantarum 15: 473-497). Compounds are dissolved in dimethylsulfoxid (DMSO) and added to the medium (final DMSO concentration 0.1%). Multi well plates are incubated in a growth chamber at 22° C., 75% relative humidity and 110 μmol Phot*m^−2*s^−1 with 14: 10 h light: dark photoperiod. Growth inhibition is evaluated seven to ten days after seeding in comparison to wild type plants. Plant injury is rated on a scale of 0% to 100%, 0% being no injury and 100% being complete death.

Assay [6] concerns Brassica napus expressing BnaAnng01240D (SEQ ID 20) variant S1041L. The assay can be described thus: 6-well plate injury test, T1 seeds on vermiculite. The following applies: 7 days after treatment. As for the experimental part: as §2
For assay [7], the system named is Arabidopsis thaliana expressing AtCesA1_P1010L_G1013R (SEQ ID 1). The assay can be described thus: 48-well plate growth inhibition, T2 seeds, tolerance factor. The following applies: based on IC50 values of growth inhibition, seven to ten days after seeding. How it is done:
as §1

On to `Cc1cccc(-n2nc(C(N)=O)nc2-c2ccccc2)c1` [1-(m-tolyl)-5-phenyl-1,2,4-triazole-3-carboxamide, reference compound], for which the “Relative tolerance rate as compared to non-transgenic Arabidopsis plants (non-transgenic = 1.0)” value is on record as 100 in assay [1]; 4 in assay [2]; 3 in assay [3]; 25 in assay [4]; 80 in assay [5].
Turning to `NC(=O)c1nc(-c2ccccc2)n(-c2ccc(Cl)c(COCC(F)(F)C(F)(F)F)c2)n1` [1-[4-chloro-3-(2,2,3,3,3-pentafluoropropoxymethyl)phenyl]-5-phenyl-1,2,4-triazole-3-carboxamide, reference compound], the average phytotox value in the assay with Brassica napus wildtype (10^-4M) is listed as 96%; in the assay with Brassica napus wildtype (10^-5M), 93%; in the assay with Brassica napus wildtype (10^-6M), 84%; in the assay on Brassica napus wildtype (10^-7M), 41%; in the assay on Brassica napus wildtype (10^-8M), 4%; in assay [6] (BnaAnng01240D S1041L event 1, 10^-4M), 95%. Moreover, the average phytotox value in assay [6] (BnaAnng01240D S1041L event 1, 10^-5M) is on record as 85%; in assay [6] (BnaAnng01240D S1041L event 1, 10^-6M) it was 80%; in assay [6] (BnaAnng01240D S1041L event 1, 10^-7M) it was 10%; in assay [6] (BnaAnng01240D S1041L event 1, 10^-8M), 0%; in assay [6] (BnaAnng01240D S1041L event 2, 10^-4M), 90%; in assay [6] (BnaAnng01240D S1041L event 2, 10^-5M), 90%. For the same compound, the average phytotox value in assay [6] (BnaAnng01240D S1041L event 2, 10^-6M) is 90%; in assay [6] (BnaAnng01240D S1041L event 2, 10^-7M), 0%; in assay [6] (BnaAnng01240D S1041L event 2, 10^-8M) it was 0%. Moreover, the “Relative tolerance rate as compared to non-transgenic Arabidopsis plants (non-transgenic = 1.0)” value in assay [7] amounted to 400.
